Source: patent publication US20050239873A1 (priority 1999, published 2005)

Legend:
[1] = system: TABX1A cells (under-expressing Bcl-xL); test: Cell viability by trypan blue dye exclusion; settings: 2 μg/ml, without fructose, six hours
From the text: Briefly, a DNA fragment encoding the full-length mouse BCl-xL cDNA was isolated from the plasmid PBS.BCL-xL (Tzung et al., Am. J. Path. 150:1985-1995, 1997, incorporated herein by reference in its entirety) by digestion with the restriction endonuclease EcoRI. This EcoRI fragment was cloned into the EcoRI site of the mammalian expression vector pSFFV (Fuhlbrigge et al., Proc. Nat. Acad. Sci. USA 85:5649-5653, 1988) in both sense and antisense orientations, to form expression plasmids pSFFV.Bcl-xL(sense) or pSFFV.Bcl-xL(antisense), respectively. The tumorigenic murine hepatocyte cell line TAMH was transfected by lipofection (Lipofectamine, Life Technologies, Rockville, Md., according to the manufacturer's recommendations) with the plasmids pSFFV.neo (the control), pSFFV.Bcl-xL(sense) or pSFFV.Bcl-xL(antisense). […] Transfectants were selected for the acquisition of neomycin resistance by growing cells in the presence of 750 μg/ml of G418. Bulk transfectants were cloned by limiting dilution and individual clones were screened by immunoblot analysis to determine the level of BCl-xL protein expression as described below.
Selected transfectants were then tested for whole cell sensitivity to several apoptotic agents. Transfected cells were cultured to reach approximately 80% confluency prior to plating an equal number of cells from selected clones on 12-well tissue culture plates. […] Cell viability was determined by trypan blue dye exclusion. The percentage of viable cells was calculated by the number of viable cells (treated with a particular apoptogenic agent) divided by the number in the control group (untreated).
TABX2S cells and TABX1A cells were also examined for the effects of various mitochondrial inhibitors. […] At various time points after drug treatment, cells were trypsinized, and cell viability was determined by trypan blue dye exclusion. The number of viable cells were counted and normalized to control group (i.e., % control=number of viable cells (treated group)/number of viable cells (control group)×100).

[2] = system: mitochondria from TABX2S cells; test: Swelling of isolated mitochondria (absorbance at 540 nm); design: species or system murine; settings: 2 μg/ml
From the text: Mitochondrial PT is caused by opening of a large conductance channel in the inner mitochondrial membrane. Opening of a large conductance channel allows free distribution of solutes of less than 1,500 Da and results in dissipation of the proton gradient and osmotic swelling of mitochondria due to the higher solute concentration in the matrix. In isolated mitochondria, the colloid osmotic swelling associated with PT pore opening can be followed by measuring the optical density change at 540 nm (Kantrow et al., Biochem. Biophy. Res. Comm. 232:669-671, 1997).
Briefly, mitochondria were isolated from TABX2S cultured cells by a modification of the procedure of Maltese et al. (J. Biol. Chem. 260:11524-11529, 1985). Typically, 0.5 to 1×10^8 cells were harvested and washed once with homogenization buffer (250 mM sucrose, 10 mM Tris-HCl, 1 mM EDTA and 1 mg/ml BSA, (pH 7.4)). The cell suspension was exposed to nitrogen at 250 psi for 30 minutes in a “cell disruption bomb” (Parr, Moline, Ill.) or homogenized in a Dounce homogenizer with a loose-fitting pestle until >90% of cells were broken. The homogenate was centrifuged at 800×g for 10 minutes. The supernatant was removed and centrifuged at 10,000×g for 10 minutes at 4° C. The pellet was resuspended and again centrifuged at 10,000×g for 10 minutes. […]

[3] = Stability in solution at pH 7.4 (no S9); format: physicochemical; settings: pH 7.4, absence of S9 proteins

Compound	survival [1] [%]	mitochondrial swelling [2]	stability in solution [3]
antimycin A	87	caused mitochondrial swelling	
CCCC[C@H]1C(=O)OC(C)[C@H](NC(=O)c2cccc(NC=O)c2OC)C(=O)O[C@@H](C)C1OC(=O)CC(C)C (stereo partly drawn) [2-OMeA3, Antimycin A3 methyl ether]			not stable
